# Results reported in US10407414B2, “Mannose derivatives for treating bacterial infections” (priority 2015, dated 2019).
# Legend:
# [1] = system: bacterial strain LF82 binding to the glycoprotein BSA-(Mannose)3 (FimH antagonists); test: Bacterial Binding Assay (BBA); format: cell-based, Escherichia coli; conditions: read-out: Bacterial Binding Assay IC50 ± SEM
# In short: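 Luciferase-expressing E. coli LF82, grown overnight at 37 °C without shaking, added as 2×10^8 bacteria/mL suspension with compound in BSA/D-PBS binding buffer. Wells were coated with 0.5–2 μg/mL BSA-(Man)3 and BSA-blocked, with 40–75 min binding at room temperature. After washing, adherent bacteria were read by luciferase luminescence and IC50 derived.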
# [2] = system: AIEC LF82 strain on T84 intestinal epithelial cells; test: Adhesion assay of AIEC LF82 strain on T84 intestinal epithelial cells (post-incubation test); format: cell-based, E. coli
# Procedure: Residual adhesion is the ratio of level of colonization/decolonization of AIEC measured on cells, and is expressed in percentage. 100% corresponds to the control experiment (NT).
# Adhesion Assays of AIEC LF82 Strain on T84 Intestinal Epithelial Cells
# Compound 56 was evaluated for its ability to inhibit the adhesion of bacteria AIEC LF82 strain on T84 intestinal cells, in order to assess the therapeutic potential of the tested compounds in Crohn's Disease (CD) in particular. The following post-incubation test was used (also described in Brument et al. J. Med. Chem. 2013, 56, 5395-5406), wherein the tested compound is added after the bacteria are brought into contact with the cells. This test thus mimics a use of the compounds in curative treatment of pathologies associated with AIECs, in particular Crohn's disease.
# E. coli strain LF82 isolated from an ileal biopsy of a CD patient was used as the AIEC reference strain. Bacteria were grown overnight in Luria-Bertani (LB) broth, and a bacterial suspension was prepared at a concentration of 6×10^6 bacteria/mL in DMEM/F12/SVF dec 10% medium for adhesion assays. The human intestinal cell line T84, purchased from American Type Culture Collection (ATCC, CCL-248), was maintained in an atmosphere containing 5% CO2 in the culture medium recommended by ATCC. […]
smiles,measurement,setting,value
"Cc1cc(=O)[nH]cc1-c1cc(C#C[C@H]2O[C@H](CO)[C@@H](O)[C@H](O)[C@@H]2O)c2[nH]ncc2c1 [Compound 56, 4-methyl-5-[7-[2-[(2R,3S,4R,5S,6R)-3,4,5-trihydroxy-6-(hydroxymethyl)tetrahydropyran-2-yl]ethynyl]-1H-indazol-5-yl]-1H-pyridin-2-one]",IC50,[1],0.2 ± 0.02 nM
same,decolonization of adherent bacteria,"[2]; at 10 nM, compound added after infection of T84 cells with LF82, 3 h at 37° C.",about 50%
same,activity for the decolonization of the LF82 AIEC from T84 cells,"[2]; from a concentration of 100 nM, FIG. 1",potent activity
